9 compounds from patent US12304917B1, “Pleuromutilin derivative containing a thiazolo[5,4-c]pyridine side chain, and a preparation method and application thereof” (SHAANXI UNIVERSITY OF SCIENCE AND TECHNOLOGY, priority 2024, dated 2025) can be followed below.

One data set is described as follows: physchem. The following applies: thermodynamic from solid.
A further data set deals with A. baumannii ATCC 19606. As to the kind of experiment: MIC by broth microdilution. The following applies: Acinetobacter baumannii, ATCC19606, 24 h, read-out: Minimum inhibitory concentration A.b.^f. For orientation: Dilution methods test growth across graded concentrations, often in twofold steps.
In data set [1] the test system is Methicillin-resistant S. epidermidis ATCC 51625. As to the kind of experiment: MIC by broth microdilution. The following applies: Staphylococcus epidermidis, ATCC51625|MRSE, 24 h, read-out: Minimum inhibitory concentration MRSE^e.
For the next data set, the system named is E. coli ATCC 25922. As to the kind of experiment: MIC by broth microdilution. As to conditions: Escherichia coli, ATCC25922, 24 h, read-out: Minimum inhibitory concentration E.c.^h.
A further data set deals with S. enterica ATCC14028. As to the kind of experiment: MIC by broth microdilution. As to conditions: Salmonella enterica, ATCC14028, 24 h, read-out: Minimum inhibitory concentration S.e.^g.
The test system of another data set is E. coli CMCC 44103. As to the kind of experiment: MIC by broth microdilution. As to conditions: Escherichia coli, CMCC44103, 24 h, read-out: Minimum inhibitory concentration E.c.^i.
Data set [2] concerns Methicillin-resistant S. aureus ATCC 43300. As to the kind of experiment: MIC by broth microdilution. The following applies: Staphylococcus aureus, ATCC43300|MRSA, 24 h, read-out: Minimum inhibitory concentration MRSA^c.
The next data set deals with S. aureus ATCC 29213. As to the kind of experiment: MIC by broth microdilution. As to conditions: Staphylococcus aureus, ATCC29213, 24 h, read-out: Minimum inhibitory concentration S.a.^d.
For data set [3], the system named is Methicillin-resistant S. aureus ATCC 33591. As to the kind of experiment: MIC by broth microdilution. The following applies: Staphylococcus aureus, ATCC33591|MRSA, 24 h, read-out: Minimum inhibitory concentration MRSA^b.

In brackets after ≈: the same amount, converted by molar mass.

A word on the solubility: it is the dissolved amount per volume that the medium holds. A high value points to a readily soluble substance. Turning to `C=C[C@]1(C)C[C@@H](OC(=O)CSc2nc3cc[n+](Cc4cc(F)c(F)cc4F)cc3s2)[C@]2(C)[C@H](C)CC[C@]3(CCC(=O)[C@H]32)[C@@H](C)[C@@H]1O` [Compound I-7, 5-(2,4,5-trifluorobenzyl)-2-((2-(((3aR,4R,5R,7S,8S,9R,9aS,12R)-8-hydroxy-4,7,9,12-tetramethyl-3-oxo-7-vinyldecahydro-4,9a-propancyclopenta[8]cyclo-5-yl)oxy)-2-oxoethyl)thio)thiazolo[5,4-c]pyridin-5-ium], the solubility in “physchem” came to 656 µM. For the same compound, the MIC in the data set with A. baumannii ATCC 19606 amounted to 128 µg/mL; in data set [1], 64 µg/mL; with E. coli ATCC 25922 it was 128 µg/mL; with S. enterica ATCC14028 it was 64 µg/mL; in the data set with E. coli CMCC 44103 it was 64 µg/mL; in data set [2], 64 µg/mL. Also, the MIC in the data set on S. aureus ATCC 29213 was determined as 64 µg/mL; in data set [3] it was 128 µg/mL.

Compound `C=C[C@]1(C)C[C@@H](OC(=O)CSCCN(CC)CC)[C@]2(C)[C@H](C)CC[C@]3(CCC(=O)[C@H]32)[C@@H](C)[C@@H]1O` [Tiamulin, tiamulin, reference compound] yielded a solubility in “physchem” of 259 µM (≈ 128 µg/mL).

In turn, `C=C[C@]1(C)C[C@@H](OC(=O)CSc2nc3cc[n+](Cc4ccc(OC)cc4)cc3s2)[C@]2(C)[C@H](C)CC[C@]3(CCC(=O)[C@H]32)[C@@H](C)[C@@H]1O` [Compound I-4, 5-(4-methoxybenzyl)-2-((2-(((3aR,4R,5R,7S,8S,9R,9aS,12R)-8-hydroxy-4,7,9,12-tetramethyl-3-oxo-7-vinyldecahydro-4,9a-propancyclopenta[8]cyclo-5-yl)oxy)-2-oxoethyl)thio)thiazolo[5,4-c]pyridin-5-ium] yielded a solubility in the data set “physchem” of 247 µM. For the same compound, the MIC with A. baumannii ATCC 19606 was 32 µg/mL; in data set [1], 64 µg/mL; in the data set with E. coli ATCC 25922, 16 µg/mL; in the data set with S. enterica ATCC14028 it was 32 µg/mL; with E. coli CMCC 44103, 8 µg/mL; in data set [2] it was 8 µg/mL. In addition, the MIC in the data set with S. aureus ATCC 29213 worked out at 16 µg/mL; in data set [3], 32 µg/mL.

As for `C=C[C@]1(C)C[C@@H](OC(=O)CSc2nc3cc[n+](Cc4ccc(Cl)cc4)cc3s2)[C@]2(C)[C@H](C)CC[C@]3(CCC(=O)[C@H]32)[C@@H](C)[C@@H]1O` [Compound I-5, 5-(4-chlorobenzyl)-2-((2-(((3aR,4R,5R,7S,8S,9R,9aS,12R)-8-hydroxy-4,7,9,12-tetramethyl-3-oxo-7-vinyldecahydro-4,9a-propancyclopenta[8]cyclo-5-yl)oxy)-2-oxoethyl)thio)thiazolo[5,4-c]pyridin-5-ium], in the data set “physchem”, the solubility came to 623 µM. The MIC with A. baumannii ATCC 19606 is 32 µg/mL; in data set [1] it was 32 µg/mL; with E. coli ATCC 25922, 32 µg/mL; in the data set with S. enterica ATCC14028, 16 µg/mL; in the data set with E. coli CMCC 44103, 32 µg/mL; in [2], 32 µg/mL. The MIC with S. aureus ATCC 29213 was determined as 8 µg/mL; in data set [3], 32 µg/mL.

`C=C[C@]1(C)C[C@@H](OC(=O)CSc2nc3cc[n+](Cc4cc(F)ccc4C#N)cc3s2)[C@]2(C)[C@H](C)CC[C@]3(CCC(=O)[C@H]32)[C@@H](C)[C@@H]1O` [Compound I-13, 5-(2-cyano-5-fluorobenzyl)-2-((2-(((3aR,4R,5R,7S,8S,9R,9aS,12R)-8-hydroxy-4,7,9,12-tetramethyl-3-oxo-7-vinyldecahydro-4,9a-propancyclopenta[8]cyclo-5-yl)oxy)-2-oxoethyl)thio)thiazolo[5,4-c]pyridin-5-ium] had a solubility in “physchem” of 231 µM. Besides, the MIC in the data set on A. baumannii ATCC 19606 amounted to 64 µg/mL; in [1], 32 µg/mL; with E. coli ATCC 25922, 64 µg/mL; with S. enterica ATCC14028, 64 µg/mL; in the data set on E. coli CMCC 44103, 32 µg/mL; in data set [2], 64 µg/mL. The results for the MIC (in the data set with S. aureus ATCC 29213; in [3]) were 64 µg/mL and 32 µg/mL, respectively.

With `C=C[C@]1(C)C[C@@H](OC(=O)CSc2nc3cc[n+](Cc4ccc(Br)cc4)cc3s2)[C@]2(C)[C@H](C)CC[C@]3(CCC(=O)[C@H]32)[C@@H](C)[C@@H]1O` [Compound I-1, 5-(4-bromobenzyl)-2-((2-(((3aR,4R,5R,7S,8S,9R,9aS,12R)-8-hydroxy-4,7,9,12-tetramethyl-3-oxo-7-vinyldecahydro-4,9a-propancyclopenta[8]cyclo-5-yl)oxy)-2-oxoethyl)thio)thiazolo[5,4-c]pyridin-5-ium], the solubility in the data set “physchem” came to 450 µM. The MIC in the data set on A. baumannii ATCC 19606 is 16 µg/mL; in data set [1], 8 µg/mL; with E. coli ATCC 25922 it was 32 µg/mL; with S. enterica ATCC14028 it was 32 µg/mL; in the data set on E. coli CMCC 44103 it was 32 µg/mL; in [2] it was 16 µg/mL. Moreover, the results for the MIC (in the data set on S. aureus ATCC 29213; in [3]) were 16 µg/mL and 32 µg/mL, respectively.

With `C=C[C@]1(C)C[C@@H](OC(=O)CSc2nc3cc[n+](Cc4cc(OC)cc(OC)c4)cc3s2)[C@]2(C)[C@H](C)CC[C@]3(CCC(=O)[C@H]32)[C@@H](C)[C@@H]1O` [Compound I-14, 5-(3,5-dimethoxybenzyl)-2-((2-(((3aR,4R,5R,7S,8S,9R,9aS,12R)-8-hydroxy-4,7,9,12-tetramethyl-3-oxo-7-vinyldecahydro-4,9a-propancyclopenta[8]cyclo-5-yl)oxy)-2-oxoethyl)thio)thiazolo[5,4-c]pyridin-5-ium], in “physchem”, the solubility was found to be 126 µM. Moreover, the MIC stood at 32 µg/mL in the data set with A. baumannii ATCC 19606; 64 µg/mL in data set [1]; 32 µg/mL with E. coli ATCC 25922; 64 µg/mL with S. enterica ATCC14028; 64 µg/mL with E. coli CMCC 44103; 32 µg/mL in data set [2]. For the same compound, the MIC in the data set on S. aureus ATCC 29213 came out at 64 µg/mL; in [3] it was 32 µg/mL.

`C=C[C@]1(C)C[C@@H](OC(=O)CSc2nc3cc[n+](Cc4ccc(-c5ccccc5)cc4)cc3s2)[C@]2(C)[C@H](C)CC[C@]3(CCC(=O)[C@H]32)[C@@H](C)[C@@H]1O` [Compound I-10, 5-([1,1′-biphenyl]-4-ylmethyl)-2-((2-(((3aR,4R,5R,7S,8S,9R,9aS,12R)-8-hydroxy-4,7,9,12-tetramethyl-3-oxo-7-vinyldecahydro-4,9a-propancyclopenta[8]cyclo-5-yl)oxy)-2-oxoethyl)thio)thiazolo[5,4-c]pyridin-5-ium] had a solubility in the data set “physchem” of 513 µM. Besides, the MIC in the data set with A. baumannii ATCC 19606 was 8 µg/mL; in data set [1], 32 µg/mL; in the data set with E. coli ATCC 25922 it was 16 µg/mL; in the data set with S. enterica ATCC14028, 16 µg/mL; with E. coli CMCC 44103 it was 32 µg/mL; in data set [2], 64 µg/mL. For the same compound, the MIC in the data set on S. aureus ATCC 29213 came out at 8 µg/mL; in [3], 16 µg/mL.

In the case of `C=C[C@]1(C)C[C@@H](OC(=O)CSc2nc3cc[n+](Cc4ccc(C(C)(C)C)cc4)cc3s2)[C@]2(C)[C@H](C)CC[C@]3(CCC(=O)[C@H]32)[C@@H](C)[C@@H]1O` [Compound I-11, 5-(4-(tert-butyl)benzyl)-2-((2-(((3aR,4R,5R,7S,8S,9R,9aS,12R)-8-hydroxy-4,7,9,12-tetramethyl-3-oxo-7-vinyldecahydro-4,9a-propancyclopenta[8]cyclo-5-yl)oxy)-2-oxoethyl)thio)thiazolo[5,4-c]pyridin-5-ium], the MIC with A. baumannii ATCC 19606 was found to be 8 µg/mL; in data set [1] it was 32 µg/mL; in the data set on E. coli ATCC 25922, 32 µg/mL; in the data set on S. enterica ATCC14028, 32 µg/mL; in the data set with E. coli CMCC 44103, 16 µg/mL; in [2], 16 µg/mL. For the same compound, the results for the MIC (in the data set with S. aureus ATCC 29213; in data set [3]) were 32 µg/mL and 64 µg/mL, respectively.
